Reference: ChEMBL document CHEMBL1201862, “PubChem BioAssay data set” (2004)
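Step 1: Grow cells in 96-well plates. Step 2: Expose to compound for 48 hours at 5 concentrations. Step 3: Interpolate endpoints linearly; if unreached, use highest concentration. The concentration for 50% growth inhibition is given as GI50.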 The source made the active and inactive calls. Cut-off read from the data, not from the text of the source: active = GI50 up to about 1.1 µM and inactive = higher.

How the values were obtained:
Experiment in all cases: NCI tumour cell line growth inhibition, 48 h
HCC 2998 = system: HCC 2998
786-0 = system: 786-0
SK-OV-3 = system: SK-OV-3
MDA-N = system: MDA-N
UACC-62 = system: UACC-62
LOX IMVI = system: LOX IMVI
OVCAR-8 = system: OVCAR-8
SF-539 = system: SF-539
A498 = system: A498
DU-145 = system: DU-145
UACC-257 = system: UACC-257
RXF 393 = system: RXF 393
HL-60 = system: HL-60
M14 = system: M14
T47D = system: T47D
Hs-578T = system: Hs-578T
NCI-H226 = system: NCI-H226
UO-31 = system: UO-31
IGROV-1 = system: IGROV-1
ACHN = system: ACHN
HOP-62 = system: HOP-62
SNB-19 = system: SNB-19
KM12 = system: KM12
PC-3 = system: PC-3
CCRF-CEM = system: CCRF-CEM
SF-268 = system: SF-268
TK-10 = system: TK-10
SNB-75 = system: SNB-75
SF-295 = system: SF-295
A549 = system: A549
SK-MEL-5 = system: SK-MEL-5
MDA-MB-231 = system: MDA-MB-231
OVCAR-5 = system: OVCAR-5
BT-549 = system: BT-549
HT-29 = system: HT-29
SW-620 = system: SW-620
SN12C = system: SN12C
NCI-H460 = system: NCI-H460
EKVX = system: EKVX
SK-MEL-2 = system: SK-MEL-2
HOP-92 = system: HOP-92
OVCAR-3 = system: OVCAR-3
Malme-3M = system: Malme-3M
HCT-15 = system: HCT-15
SK-MEL-28 = system: SK-MEL-28
K562 = system: K562
MOLT-4 = system: MOLT-4
MCF7 = system: MCF7
CAKI-1 = system: CAKI-1
MDA-MB-435 = system: MDA-MB-435
NCI-H23 = system: NCI-H23
RPMI-8226 = system: RPMI-8226
NCI/ADR-RES = system: NCI/ADR-RES
HCT-116 = system: HCT-116
U-251 = system: U-251
SR = system: SR
NCI-H522 = system: NCI-H522
OVCAR-4 = system: OVCAR-4
COLO 205 = system: COLO 205

O=C1C=C(N2CCCC2)C(=O)c2c(O)ccc(O)c21
GI50 (HCC 2998): > 10 µM (inactive) | GI50 (786-0): > 10 µM (inactive) | GI50 (SK-OV-3): > 10 µM (inactive) | GI50 (MDA-N): > 10 µM (inactive) | GI50 (UACC-62): 7.28 µM (inactive) | GI50 (LOX IMVI): > 10 µM (inactive) | GI50 (OVCAR-8): > 10 µM (inactive) | GI50 (SF-539): > 10 µM (inactive) | GI50 (A498): > 10 µM (inactive) | GI50 (DU-145): > 10 µM (inactive) | GI50 (UACC-257): > 10 µM (inactive) | GI50 (RXF 393): > 10 µM (inactive) | GI50 (HL-60): 4.52 µM (inactive) | GI50 (M14): 6.32 µM (inactive) | GI50 (T47D): > 10 µM (inactive) | GI50 (Hs-578T): > 10 µM (inactive) | GI50 (NCI-H226): > 10 µM (inactive) | GI50 (UO-31): > 10 µM (inactive) | GI50 (IGROV-1): > 10 µM (inactive) | GI50 (ACHN): > 10 µM (inactive) | GI50 (HOP-62): > 10 µM (inactive) | GI50 (SNB-19): > 10 µM (inactive) | GI50 (KM12): > 10 µM (inactive) | GI50 (PC-3): > 10 µM (inactive) | GI50 (CCRF-CEM): 1.71 µM (inactive) | GI50 (SF-268): > 10 µM (inactive) | GI50 (TK-10): > 10 µM (inactive) | GI50 (SNB-75): > 10 µM (inactive) | GI50 (SF-295): > 10 µM (inactive) | GI50 (A549): > 10 µM (inactive) | GI50 (SK-MEL-5): 4.6 µM (inactive) | GI50 (MDA-MB-231): > 10 µM (inactive) | GI50 (OVCAR-5): > 10 µM (inactive) | GI50 (BT-549): > 10 µM (inactive) | GI50 (HT-29): > 10 µM (inactive) | GI50 (SW-620): > 10 µM (inactive) | GI50 (SN12C): > 10 µM (inactive) | GI50 (NCI-H460): > 10 µM (inactive) | GI50 (EKVX): > 10 µM (inactive) | GI50 (SK-MEL-2): > 10 µM (inactive) | GI50 (HOP-92): > 10 µM (inactive) | GI50 (OVCAR-3): > 10 µM (inactive) | GI50 (Malme-3M): 3.93 µM (inactive) | GI50 (HCT-15): > 10 µM | GI50 (SK-MEL-28): > 10 µM (inactive) | GI50 (K562): 2.92 µM (inactive) | GI50 (MOLT-4): 2.37 µM (inactive) | GI50 (MCF7): 9.57 µM (inactive)

CC(=O)Oc1cc(S(=O)(=O)Nc2n[nH]c(Nc3ccc(C)cc3)n2)c(S)cc1Cl
GI50 (786-0): > 100 µM (inactive) | GI50 (CAKI-1): > 100 µM (inactive) | GI50 (MDA-N): > 100 µM (inactive) | GI50 (UACC-62): > 100 µM (inactive) | GI50 (LOX IMVI): > 100 µM (inactive) | GI50 (OVCAR-8): > 100 µM (inactive) | GI50 (SF-539): > 100 µM (inactive) | GI50 (MDA-MB-435): > 100 µM (inactive) | GI50 (A498): > 100 µM (inactive) | GI50 (DU-145): > 100 µM (inactive) | GI50 (UACC-257): > 100 µM (inactive) | GI50 (HL-60): 45.7 µM (inactive) | GI50 (M14): > 100 µM (inactive) | GI50 (T47D): > 100 µM (inactive) | GI50 (NCI-H23): > 100 µM (inactive) | GI50 (Hs-578T): 79.3 µM (inactive) | GI50 (RPMI-8226): > 100 µM (inactive) | GI50 (UO-31): > 100 µM (inactive) | GI50 (IGROV-1): > 100 µM (inactive) | GI50 (ACHN): 54.8 µM (inactive) | GI50 (SNB-19): > 100 µM (inactive) | GI50 (KM12): > 100 µM (inactive) | GI50 (NCI/ADR-RES): > 100 µM (inactive) | GI50 (HCT-116): > 100 µM (inactive) | GI50 (U-251): > 100 µM (inactive) | GI50 (PC-3): > 100 µM (inactive) | GI50 (SR): 66.7 µM (inactive) | GI50 (CCRF-CEM): 94.8 µM (inactive) | GI50 (TK-10): > 100 µM (inactive) | GI50 (SF-295): > 100 µM (inactive) | GI50 (A549): > 100 µM (inactive) | GI50 (SK-MEL-5): > 100 µM (inactive) | GI50 (MDA-MB-231): 51.1 µM (inactive) | GI50 (OVCAR-5): > 100 µM (inactive) | GI50 (NCI-H522): 92 µM (inactive) | GI50 (BT-549): > 100 µM (inactive) | GI50 (HT-29): > 100 µM (inactive) | GI50 (SW-620): > 100 µM (inactive) | GI50 (SN12C): > 100 µM (inactive) | GI50 (NCI-H460): > 100 µM (inactive) | GI50 (OVCAR-4): > 100 µM (inactive) | GI50 (EKVX): > 100 µM (inactive) | GI50 (COLO 205): > 100 µM (inactive) | GI50 (SK-MEL-2): > 100 µM (inactive) | GI50 (HOP-92): > 100 µM (inactive) | GI50 (OVCAR-3): > 100 µM (inactive) | GI50 (Malme-3M): > 100 µM (inactive) | GI50 (HCT-15): > 100 µM | GI50 (SK-MEL-28): > 100 µM (inactive) | GI50 (K562): 68.1 µM (inactive) | GI50 (MOLT-4): 83.2 µM (inactive)

C[C@]12CC[C@H](O)CC1=CC[C@@H]1[C@@H]2CC[C@]2(C)C(=N/O)/C(=C/c3ccc([N+](=O)[O-])cc3)C[C@@H]12
GI50 (HCC 2998): 2.37 µM (inactive) | GI50 (786-0): 3.03 µM (inactive) | GI50 (SK-OV-3): 0.403 µM (active) | GI50 (CAKI-1): 7.05 µM (inactive) | GI50 (MDA-N): 6.93 µM (inactive) | GI50 (UACC-62): 10.9 µM (inactive) | GI50 (LOX IMVI): 8.34 µM (inactive) | GI50 (OVCAR-8): 2.82 µM (inactive) | GI50 (SF-539): 4.09 µM (inactive) | GI50 (MDA-MB-435): 8.38 µM (inactive) | GI50 (A498): 3.33 µM (inactive) | GI50 (DU-145): 6.73 µM (inactive) | GI50 (UACC-257): 3.65 µM (inactive) | GI50 (RXF 393): 3.6 µM (inactive) | GI50 (HL-60): 1.91 µM (inactive) | GI50 (M14): 6.75 µM (inactive) | GI50 (T47D): 2.48 µM (inactive) | GI50 (NCI-H23): 5.94 µM (inactive) | GI50 (Hs-578T): 12.1 µM (inactive) | GI50 (RPMI-8226): 3.59 µM (inactive) | GI50 (NCI-H226): 1.16 µM (inactive) | GI50 (UO-31): 8.22 µM (inactive) | GI50 (IGROV-1): 7.48 µM (inactive) | GI50 (ACHN): 4.13 µM (inactive) | GI50 (HOP-62): 0.619 µM (active) | GI50 (SNB-19): 10.6 µM (inactive) | GI50 (KM12): 0.841 µM (active) | GI50 (NCI/ADR-RES): 6.03 µM (inactive) | GI50 (HCT-116): 3.93 µM (inactive) | GI50 (PC-3): 3.22 µM (inactive) | GI50 (SR): 2.51 µM (inactive) | GI50 (CCRF-CEM): 5.94 µM (inactive) | GI50 (SF-268): 10.9 µM (inactive) | GI50 (SNB-75): 4.32 µM (inactive) | GI50 (SF-295): 0.45 µM (active) | GI50 (A549): 0.782 µM (active) | GI50 (SK-MEL-5): 1.18 µM (inactive) | GI50 (OVCAR-5): 1.61 µM (inactive) | GI50 (NCI-H522): 3.18 µM (inactive) | GI50 (BT-549): 10.5 µM (inactive) | GI50 (HT-29): 6.15 µM (inactive) | GI50 (SW-620): 9.86 µM (inactive) | GI50 (SN12C): 3.08 µM (inactive) | GI50 (NCI-H460): 0.519 µM (active) | GI50 (OVCAR-4): 5.33 µM (inactive) | GI50 (EKVX): 2.59 µM (inactive) | GI50 (COLO 205): 3.53 µM (inactive) | GI50 (SK-MEL-2): 4.53 µM (inactive) | GI50 (HOP-92): 3.29 µM (inactive) | GI50 (OVCAR-3): 1.76 µM (inactive) | GI50 (Malme-3M): 7.43 µM (inactive) | GI50 (HCT-15): 4.78 µM | GI50 (SK-MEL-28): 5.9 µM (inactive) | GI50 (K562): 3.3 µM (inactive) | GI50 (MOLT-4): 3.66 µM (inactive) | GI50 (MCF7): 3.78 µM (inactive)
